“And” between values parts separate entries of the source, which are not always exact repeats. Equal entries are not always repeated. Where two headings read alike, the source gives them in different places.
Assays:
[1] = system: Pleurotus ostreatus mycelia CGMCC No. 6232; experiment: Shake-flask fermentation, total content of ergothioneine in the fermentation broth by HPLC; type: cell-based
[2] = system: Pleurotus ostreatus mycelia CGMCC No. 6232; experiment: Shake-flask fermentation, content of extracellular ergothioneine in the filtrate by HPLC
Method: Seed medium: corn flour 30 g/L, soybean meal powder 15 g/L, α-amylase 80 U/L, KH2PO4 3 g/L, MgSO4.7H2O 1.5 g/L, and a balance of water. The seed medium was sterilized at 121° C. for 20 min, and the liquid volume in a 500 mL triangular flask was 150 mL. […] A lawn of the strain CGMCC No. 6232 was picked from the PDA slant and inoculated into the seed medium, cultured on a shaker at 150 rpm at 25° C. for 4 days, to obtain a seed liquor. […] The obtained permeate was the test sample for detection of the content of extracellular ergothioneine in the filtrate. […] The solutions were filtered with 0.22 μm millipore filter to obtain the reference solutions. Qualitative and quantitative detection: L-ergothioneine reference solutions and the test samples were detected by HPLC under the same chromatographic conditions. The chromatograms of the test samples were compared with those of the L-ergothioneine reference solutions, and the chromatographic peak of L-ergothioneine in the test sample was identified based on the retention time. A standard curve was plotted with the concentrations of L-ergothioneine reference solutions and the corresponding peak areas. In the case that the sample load of the reference solution was identical with that of the test sample, an external standard method was used for quantification so as to calculate the content of ergothioneine in the test sample. The concentration of ergothioneine in the test sample was the concentration of ergothioneine in the fermentation broth. Detection conditions: the chromatographic column was Agilent Eclipse XDB-C18 (4.6×250 mm, 5 μm), with two chromatographic columns in series; the mobile phase was 1% methanol solution, the pH of which was adjusted to 5.0 using acetic acid-sodium acetate buffer; the detection wavelength was 257 nm; the flow rate was 0.7 mL/min; the column temperature was 25° C.; and the sample load was 5 μL. […] Pleurotus ostreatus mycelia CGMCC No. 6232 were subjected to fermentation and culture.

## tween 60
[1]; tween 60 2 g/L added in fermentation medium
  Content of ergothioneine in fermentation broth: 128.8 ± 1.51 mg/L
[1]; tween 60 5 g/L added in fermentation medium
  Content of ergothioneine in fermentation broth: 173.6 ± 2.98 mg/L
[1]; tween 60 10 g/L
  content of ergothioneine improved compared with control group: 74.9%
[1]; tween 60 10 g/L added in fermentation medium
  Content of ergothioneine in fermentation broth: 212.7 mg/L and 212.7 ± 4.52 mg/L
[1]; tween 60 20 g/L added in fermentation medium
  Content of ergothioneine in fermentation broth: 184.4 ± 3.78 mg/L
[1]; tween 60 40 g/L added in fermentation medium
  Content of ergothioneine in fermentation broth: 154.2 ± 2.63 mg/L
[1]; tween 60 50 g/L added in fermentation medium
  Content of ergothioneine in fermentation broth: 129.1 ± 2.1 mg/L
[2]; tween 60 5 g/L (highest)
  content of extracellular ergothioneine in the filtrate: 16.24 mg/L

## OC(Cn1cncn1)(Cn1cncn1)c1ccc(F)cc1F [Fluconazole, reference compound]
[1]; Fluconazole 2 mg/L added in fermentation medium
  Content of ergothioneine in fermentation broth: 131.6 ± 1.92 mg/L
[1]; Fluconazole 5 mg/L added in fermentation medium
  Content of ergothioneine in fermentation broth: 137.2 ± 2.51 mg/L
[1]; Fluconazole 20 mg/L added in fermentation medium
  Content of ergothioneine in fermentation broth: 141.3 ± 3.27 mg/L
[1]; Fluconazole 50 mg/L added in fermentation medium
  Content of ergothioneine in fermentation broth: 146.4 mg/L and 146.4 ± 3.41 mg/L
[1]; Fluconazole 80 mg/L added in fermentation medium
  Content of ergothioneine in fermentation broth: 132.7 ± 3.39 mg/L
[1]; Pleurotus ostreatus, CGMCC6232, 360 h, Fluconazole 50 mg/L, read-out: content of ergothioneine improved compared with control group
  activation at 50 µg/mL: 19.6%
[2]; Fluconazole 50 mg/L (highest)
  content of extracellular ergothioneine in the filtrate: 7.67 mg/L

## CCCCCCCC/C=C\CCCCCCCC(=O)OCCOCC(OCCO)C1OCC(OCCO)C1OCCO (stereo not drawn) [tween 80]
[1]; Pleurotus ostreatus, CGMCC6232, 360 h, tween 80 10 g/L, read-out: content of ergothioneine improved compared with control group
  activation at 10000 µg/mL: 78.5%
[1]; tween 80 0.5 g/L added in fermentation medium
  Content of ergothioneine in fermentation broth: 130.2 ± 1.56 mg/L
[1]; tween 80 2 g/L added in fermentation medium
  Content of ergothioneine in fermentation broth: 155.9 ± 2.7 mg/L
[1]; tween 80 5 g/L added in fermentation medium
  Content of ergothioneine in fermentation broth: 181.8 ± 3.95 mg/L
[1]; tween 80 10 g/L added in fermentation medium
  Content of ergothioneine in fermentation broth: 217 mg/L and 217 ± 4.37 mg/L
[1]; tween 80 20 g/L added in fermentation medium
  Content of ergothioneine in fermentation broth: 170.9 ± 4.43 mg/L
[1]; tween 80 40 g/L added in fermentation medium
  Content of ergothioneine in fermentation broth: 130.9 ± 1.61 mg/L
[2]; tween 80 10 g/L (highest)
  content of extracellular ergothioneine in the filtrate: 18.72 mg/L

## CC(=O)N1CCN(c2ccc(OCC3COC(Cn4ccnc4)(c4ccc(Cl)cc4Cl)O3)cc2)CC1 (stereo not drawn) [Ketoconazole, reference compound]
[1]; Ketoconazole 0.5 mg/L added in fermentation medium
  Content of ergothioneine in fermentation broth: 127.6 ± 1.06 mg/L
[1]; Ketoconazole 1 mg/L added in fermentation medium
  Content of ergothioneine in fermentation broth: 130.7 ± 2.22 mg/L
[1]; Ketoconazole 5 mg/L added in fermentation medium
  Content of ergothioneine in fermentation broth: 134.1 mg/L and 134.1 ± 2.99 mg/L
[1]; Ketoconazole 10 mg/L added in fermentation medium
  Content of ergothioneine in fermentation broth: 132.5 ± 1.87 mg/L
[1]; Ketoconazole 50 mg/L added in fermentation medium
  Content of ergothioneine in fermentation broth: 128.9 ± 1.18 mg/L
[1]; Pleurotus ostreatus, CGMCC6232, 360 h, Ketoconazole 5 mg/L, read-out: content of ergothioneine improved compared with control group
  activation at 5 µg/mL: 9.6%
[2]; Ketoconazole 50 mg/L (highest)
  content of extracellular ergothioneine in the filtrate: 5.77 mg/L

## C[S+](C)[O-] [dimethyl sulfoxide]
[2]; dimethyl sulfoxide 2% (V/V) (highest)
  content of extracellular ergothioneine in the filtrate: 10.18 mg/L

## CC(C)O [isopropyl alcohol]
[2]; isopropyl alcohol 2% (V/V) (highest)
  content of extracellular ergothioneine in the filtrate: 10.04 mg/L

## O=C(O)CN(CCN(CC(=O)O)CC(=O)O)CC(=O)O [EDTA, ethylenediaminetetraacetic acid]
[2]; EDTA 0.5 g/L (highest)
  content of extracellular ergothioneine in the filtrate: 9.28 mg/L

## Clc1ccc(COC(Cn2ccnc2)c2ccc(Cl)cc2Cl)c(Cl)c1 (stereo not drawn) [Miconazole, reference compound]
[1]; Miconazole 0.5 mg/L added in fermentation medium
  Content of ergothioneine in fermentation broth: 132.4 ± 2.96 mg/L
[1]; Miconazole 1 mg/L added in fermentation medium
  Content of ergothioneine in fermentation broth: 140.0 ± 3.28 mg/L
[1]; Miconazole 5 mg/L added in fermentation medium
  Content of ergothioneine in fermentation broth: 152.9 mg/L and 152.9 ± 4.22 mg/L
[1]; Miconazole 10 mg/L added in fermentation medium
  Content of ergothioneine in fermentation broth: 147.0 ± 3.09 mg/L
[1]; Miconazole 15 mg/L added in fermentation medium
  Content of ergothioneine in fermentation broth: 129.8 ± 2.11 mg/L
[1]; Pleurotus ostreatus, CGMCC6232, 360 h, Miconazole 5 mg/L, read-out: content of ergothioneine improved compared with control group
  activation at 5 µg/mL: 24.9%
[2]; Miconazole 50 mg/L (highest)
  content of extracellular ergothioneine in the filtrate: 9.14 mg/L

## O=C(O)CC(O)(CC(=O)O)C(=O)O [citric acid]
[1]; Pleurotus ostreatus, CGMCC6232, 360 h, citric acid 0.4 g/L, read-out: content of ergothioneine improved compared with control group
  activation at 400 µg/mL: 10.4%
[1]; citric acid 0.01 g/L added in fermentation medium
  Content of ergothioneine in fermentation broth: 126.9 ± 2.75 mg/L
[1]; citric acid 0.05 g/L added in fermentation medium
  Content of ergothioneine in fermentation broth: 130.2 ± 1.31 mg/L
[1]; citric acid 0.2 g/L added in fermentation medium
  Content of ergothioneine in fermentation broth: 135.4 ± 0.83 mg/L
[1]; citric acid 0.4 g/L added in fermentation medium
  Content of ergothioneine in fermentation broth: 138.3 mg/L and 138.3 ± 2.49 mg/L
[1]; citric acid 0.8 g/L added in fermentation medium
  Content of ergothioneine in fermentation broth: 128.4 ± 1.16 mg/L

## [Cl-].[Na+] [NaCl]
[1]
  content of ergothioneine improved compared with control group: 6.63%

## Cc1ncc(C[n+]2csc(CCO)c2C)c(N)n1 [VB1, vitamin B1]
[1]; VB1 0.01 g/L added in fermentation medium
  Content of ergothioneine in fermentation broth: 122.7 ± 1.02 mg/L
[1]; VB1 0.05 g/L added in fermentation medium
  Content of ergothioneine in fermentation broth: 128.8 ± 2.41 mg/L
[1]; VB1 0.1 g/L
  content of ergothioneine improved compared with control group: 11.2%
[1]; VB1 0.1 g/L added in fermentation medium
  Content of ergothioneine in fermentation broth: 132.2 mg/L and 132.2 ± 1.39 mg/L
[1]; VB1 0.2 g/L added in fermentation medium
  Content of ergothioneine in fermentation broth: 129.6 ± 2.67 mg/L
[1]; VB1 0.4 g/L added in fermentation medium
  Content of ergothioneine in fermentation broth: 127 ± 1.86 mg/L
[1]; VB1 0.8 g/L added in fermentation medium
  Content of ergothioneine in fermentation broth: 123.3 ± 3.03 mg/L
